Experimental data published in patent US7229630B2, “Stabilized formulations of alpha adrenergic receptor antagonists and the uses thereof” (Novalar Pharmaceuticals, Inc., priority 2002, dated 2007).
Structures can show the parent of a compound that is named as a salt.

What was measured:
[1] = Narrow-range pH-stability profiling at 60° C. (HPLC); format: physicochemical; details: 50 mM sodium phosphate, zero-order rate constant vs pH
Description: (§1) The drug is monitored at a detection wavelength of 232 nm.
All samples were stored in the dark. […] All samples were analyzed without dilution.
The phosphate buffers were prepared as previously described. […] Measurement of sample pH was done after HPLC analysis.
In order to precisely define the most favorable pH, a stronger stressing condition was needed to generate a greater extent of degradation in the lower pH region. For this study, the incubation condition was shifted from 40° C. to 60° C. […] Since the extent of degradation after fourteen (14) days was still less than twenty percent (20%) in most samples, zero-order rate kinetics was used for the degradation curves (concentration versus time). The calculated rate constant was plotted against pH to provide the narrow-range pH-stability profile.

[2] = Effect of buffer anion on stability at 60° C. (HPLC); format: physicochemical
Description: as §1
Tightly sealed glass vials containing the test solutions were placed in an oven at 40° C. or 60° C. All samples were stored in the dark. Aliquots were removed at designated time points for HPLC analysis and pH measurement. All samples were analyzed without dilution.
The test buffers included 50 mM sodium phosphate, 50 mM sodium acetate, 50 mM sodium lactate, 50 mM sodium citrate, and 50 mM sodium succinate buffers at pH 3.
The phosphate and acetate buffers were prepared as described above. The citrate buffer was prepared by adding 9.60 g of citric acid to water, adjusting the pH with 2 N NaOH to pH 3, and bringing the volume to 1 L in a volumetric flask. The lactate buffer was prepared by adding 2.25 g of lactic acid to water, adjusting the pH with 2 N NaOH to pH 3, and bringing the volume to 1 L in a volumetric flask. The succinate buffer was prepared by adding 2.95 g succinic acid to water, adjusting the pH with 2 N NaOH to pH 3, and bringing the volume to 1 L in a volumetric flask.
Measurements of sample pH were done after HPLC analysis.

[3] = 50 mM sodium Acetate pH 3.0, 60° C., Day 0
[4] = 50 mM sodium Acetate pH 3.0, 60° C., Day 2
[5] = 50 mM sodium Acetate pH 3.0, 60° C., Day 7
[6] = 50 mM sodium Acetate pH 3.0, 60° C., Day 14
[7] = 50 mM sodium Citrate pH 3.0, 60° C., Day 0
[8] = 50 mM sodium Citrate pH 3.0, 60° C., Day 2
[9] = 50 mM sodium Citrate pH 3.0, 60° C., Day 7
[10] = 50 mM sodium Citrate pH 3.0, 60° C., Day 14
[11] = 50 mM sodium Lactate pH 3.0, 60° C., Day 0
[12] = 50 mM sodium Lactate pH 3.0, 60° C., Day 2
[13] = 50 mM sodium Lactate pH 3.0, 60° C., Day 7
[14] = 50 mM sodium Lactate pH 3.0, 60° C., Day 14
[15] = 50 mM sodium Phosphate pH 3.0, 60° C., Day 0
[16] = 50 mM sodium Phosphate pH 3.0, 60° C., Day 2
[17] = 50 mM sodium Phosphate pH 3.0, 60° C., Day 7
[18] = 50 mM sodium Phosphate pH 3.0, 60° C., Day 14
[19] = 50 mM sodium Succinate pH 3.0, 60° C., Day 0
[20] = 50 mM sodium Succinate pH 3.0, 60° C., Day 2
[21] = 50 mM sodium Succinate pH 3.0, 60° C., Day 7
[22] = 50 mM sodium Succinate pH 3.0, 60° C., Day 14

## Cc1ccc(N(CC2=NCCN2)c2cccc(O)c2)cc1 [Phentolamine Mesylate, phentolamine mesylate]
[1]
  pH at which most stable: 3.5
[2]; [3]
  Phentolamine Concentration: 96 µg/mL
  Phentolamine Purity: 100 % peak area
[2]; [4]
  Phentolamine Concentration: 95 µg/mL
  Phentolamine Purity: 98 % peak area
[2]; [5]
  Phentolamine Concentration: 94 µg/mL
  Phentolamine Purity: 97 % peak area
[2]; [6]
  Phentolamine Concentration: 89 µg/mL
  Phentolamine Purity: 96 % peak area
[2]; [7]
  Phentolamine Concentration: 93 µg/mL
  Phentolamine Purity: 97 % peak area
[2]; [8]
  Phentolamine Concentration: 87 µg/mL
  Phentolamine Purity: 91 % peak area
[2]; [9]
  Phentolamine Concentration: 73 µg/mL
  Phentolamine Purity: 77 % peak area
[2]; [10]
  Phentolamine Concentration: 62 µg/mL
  Phentolamine Purity: 69 % peak area
[2]; [11]
  Phentolamine Concentration: 97 µg/mL
  Phentolamine Purity: 99 % peak area
[2]; [12]
  Phentolamine Concentration: 94 µg/mL
  Phentolamine Purity: 98 % peak area
[2]; [13]
  Phentolamine Concentration: 91 µg/mL
  Phentolamine Purity: 94 % peak area
[2]; [14]
  Phentolamine Concentration: 83 µg/mL
  Phentolamine Purity: 89 % peak area
[2]; [15]
  Phentolamine Concentration: 96 µg/mL
  Phentolamine Purity: 99 % peak area
[2]; [16]
  Phentolamine Concentration: 93 µg/mL
  Phentolamine Purity: 97 % peak area
[2]; [17]
  Phentolamine Concentration: 91 µg/mL
  Phentolamine Purity: 95 % peak area
[2]; [18]
  Phentolamine Concentration: 84 µg/mL
  Phentolamine Purity: 91 % peak area
[2]; [19]
  Phentolamine Concentration: 96 µg/mL
  Phentolamine Purity: 99 % peak area
[2]; [20]
  Phentolamine Concentration: 88 µg/mL
  Phentolamine Purity: 92 % peak area
[2]; [21]
  Phentolamine Concentration: 74 µg/mL
  Phentolamine Purity: 78 % peak area
[2]; [22]
  Phentolamine Concentration: 64 µg/mL
  Phentolamine Purity: 74 % peak area
[2]; pH 3, 60° C., 14 days
  rank of buffer preference based on the amount of phentolamine recovered at the end of the study: sodium acetate>no buffer (water with pH adjusted to pH 3)>sodium phosphate>sodium lactate>sodium succinate>sodium citrate
